{
  "source": "patent US12473534B2",
  "about": "“Composition for culturing peripheral blood monocyte-derived regulatory t cell and regulatory T cell culturing method using same” (Immunisbio Co., Ltd., priority 2019, dated 2025)",
  "key": {"[1]": {"test_system": "regulatory T cells derived from peripheral blood mononuclear cells", "assay": "Culturing of regulatory T cells from peripheral blood mononuclear cells with myricetin or superoxide dismutase, FACS analysis", "format": "cell-based, human", "details": "for CD4+, CD25+, CD127− (%): flow cytometry; for Total number of cells: start 2.0×10^7 cells, control 20.8", "experimental": "30 mL to 60 mL of human peripheral blood was collected using a 10 mL heparinized vacuum blood collection tube (BD Vacutainer TM). Then, 15 mL of a solution of Ficoll-Paque Plus (endotoxin tested, density 1.077 g/mL, GE Healthcare, USA) was put into a 50 mL lymphocyte separation tube (Leucosep, Greiner Bio-One, Swiss), and the solution was allowed to precipitate down to a glass membrane in the tube by centrifugation at 2000 rpm. The collected blood was transferred to a separation tube and centrifuged at 2500 rpm to separate the erythrocytes and granulocyte layer at the bottom, and the mononuclear cell layer and platelets at the top, thereby separating the blood components. After centrifugation, the plasma in the separated upper layer was inactivated in a water bath at 56° C. for 30 minutes. After centrifugation, the separated lymphocyte layer was collected using a sterilized pipette and collected in a 15 mL tube. After the 15 mL tube with the collected lymphocytes were centrifuged, the supernatant was removed. Cells were washed by adding 10 mL of a buffer solution (PBS) to the lymphocytes from which the supernatant had been removed and suspending the cells. The number of cells was measured from some of the suspension using a hemocytometer, and only lymphocytes were collected by centrifuging again. In this case, the number of harvested lymphocytes was measured to be 20×10^6 cells in total, and the harvested lymphocytes were cultured according to Example 1 below. After the lymphocytes prepared in Experimental Example 1 were taken, the lymphocytes were cultured in a T-flask (SPL Life Sciences) containing a culture solution and 0.2 to 2 mL of plasma in a 5% CO2 incubator at 37° C. for 4 to 14 days. Furthermore, in order to induce a reaction with an activation receptor present on the cell surface of regulatory T cells, 0.001 to 0.03 of one or more antibodies selected from the group consisting of anti-CD2, anti-CD3, anti-CD7, anti-CD8, anti-CD28, anti-CD30L, anti-CD40, anti-CD70, anti-CD80, anti-CD83 and anti-CD86; one or more cytokines selected from the group consisting of interleukin-2, interleukin-4, interleukin-7, interleukin-12, interleukin-15, interleukin-34 and TGF-β; 0 to 250 μM of myricetin; and 0 to 50 μM of superoxide dismutase were administered. That is, lymphocytes measured to be a total number of 2.0×10^7 cells were added to 5 to 100 mL of KBM502 medium including the above-described plasma, antibodies, cytokines, myricetin and superoxide dismutase, and cultured in a CO2 incubator for 4 to 14 days. To confirm the differentiation of regulatory T cells, staining was performed with an anti-human antibody or mouse isotype antibody (BD-Pharmingen San Jose, USA) under a condition of CD4+, CD25+ and CD127−, which are surface proteins of regulatory T cells, measured by flow cytometry, and then analyzed using BD Accuri C6 Plus."}, "[2]": {"test_system": "regulatory T cells derived from peripheral blood mononuclear cells after removal of CD8+ cells", "assay": "Culturing of regulatory T cells with myricetin and superoxide dismutase only or in combination after removal of CD8, FACS analysis", "format": "cell-based, human", "details": "for Total number of cells: control 18.2", "experimental": "After the lymphocytes prepared in Experimental Example 1 were taken, the lymphocytes were cultured in a T-flask (SPL Life Sciences) containing a culture solution and 0.2 to 2 mL of plasma in a 5% CO2 incubator at 37° C. for 4 to 14 days. Furthermore, in order to induce a reaction with an activation receptor present on the cell surface of regulatory T cells, 0.001 to 0.03 of one or more antibodies selected from the group consisting of anti-CD2, anti-CD3, anti-CD7, anti-CD8, anti-CD28, anti-CD30L, anti-CD40, anti-CD70, anti-CD80, anti-CD83 and anti-CD86; one or more cytokines selected from the group consisting of interleukin-2, interleukin-4, interleukin-7, interleukin-12, interleukin-15, interleukin-34 and TGF-β; 0 to 250 μM of myricetin; and 0 to 50 μM of superoxide dismutase were administered. That is, lymphocytes measured to be a total number of 2.0×10^7 cells were added to 5 to 100 mL of KBM502 medium including the above-described plasma, antibodies, cytokines, myricetin and superoxide dismutase, and cultured in a CO2 incubator for 4 to 14 days. After peripheral blood mononuclear cells were separated, the cells were suspended in MACS buffer from Miltenyi Biotec and reacted with Human CD8 MicroBeads, and then CD8+ cells were removed using an LD column in a QuadroMACS Separator. Then, the cells were cultured using the same culturing method as in Example 1, and treated with myricetin and superoxide dismutase by selecting the treatment concentration having the highest regulatory T cell distribution in Example 1. To confirm the differentiation of regulatory T cells, staining was performed with an anti-human antibody or mouse isotype antibody (BD-Pharmingen San Jose, USA) under a condition of CD4+, CD25+ and CD127−, which are surface proteins of regulatory T cells, measured by flow cytometry, and then analyzed using BD Accuri C6 Plus."}, "[3]": {"details": "Day 0, after removal of CD8, flow cytometry"}, "[4]": {"details": "Day 7 of culture, after removal of CD8"}, "[5]": {"details": "Day 7 of culture, after removal of CD8, control 92.3"}},
  "data": [
    {"compound": "O=c1c(O)c(-c2cc(O)c(O)c(O)c2)oc2cc(O)cc(O)c12", "note": "[M2, myricetin]", "values": [
      {"measurement": "CD4+, CD25+, CD127− (%)", "setting": "[1]; Day 0, before culture", "result": 2.1, "unit": "%"},
      {"measurement": "CD4+, CD25+, CD127− (%)", "setting": "[1]; Day 7 of culture, control 18.0", "result": 22.9, "unit": "%"},
      {"measurement": "Total number of cells", "setting": "[1]; Day 7 of culture", "result": "26.7 ×10^7 cells"}
    ]},
    {"compound": "superoxide dismutase [S3]", "values": [
      {"measurement": "CD4+, CD25+, CD127− (%)", "setting": "[1]; Day 0, before culture", "result": 1.2, "unit": "%"},
      {"measurement": "CD4+, CD25+, CD127− (%)", "setting": "[1]; Day 7 of culture, control 18.0", "result": 36.0, "unit": "%"},
      {"measurement": "Total number of cells", "setting": "[1]; Day 7 of culture", "result": "24.4 ×10^7 cells"}
    ]},
    {"compound": "superoxide dismutase [S1]", "values": [
      {"measurement": "CD4+, CD25+, CD127− (%)", "setting": "[1]; Day 0, before culture", "result": 1.2, "unit": "%"},
      {"measurement": "CD4+, CD25+, CD127− (%)", "setting": "[1]; Day 7 of culture, control 18.0", "result": 37.4, "unit": "%"},
      {"measurement": "Total number of cells", "setting": "[1]; Day 7 of culture", "result": "22.5 ×10^7 cells"},
      {"measurement": "CD4+, CD25+, CD127− (%)", "setting": "[2]; [3]", "result": 0.7, "unit": "%"},
      {"measurement": "Total number of cells", "setting": "[2]; [4]", "result": "21.5 ×10^7 cells"},
      {"measurement": "CD4+, CD25+, CD127− (%)", "setting": "[2]; [5]", "result": 97.6, "unit": "%"}
    ]},
    {"compound": "O=c1c(O)c(-c2cc(O)c(O)c(O)c2)oc2cc(O)cc(O)c12", "note": "[M3, myricetin]", "values": [
      {"measurement": "CD4+, CD25+, CD127− (%)", "setting": "[1]; Day 0, before culture", "result": 2.1, "unit": "%"},
      {"measurement": "CD4+, CD25+, CD127− (%)", "setting": "[1]; Day 7 of culture, control 18.0", "result": 24.7, "unit": "%"},
      {"measurement": "Total number of cells", "setting": "[1]; Day 7 of culture", "result": "28.6 ×10^7 cells"},
      {"measurement": "CD4+, CD25+, CD127− (%)", "setting": "[2]; [3]", "result": 0.4, "unit": "%"},
      {"measurement": "Total number of cells", "setting": "[2]; [4]", "result": "20.8 ×10^7 cells"},
      {"measurement": "CD4+, CD25+, CD127− (%)", "setting": "[2]; [5]", "result": 97.6, "unit": "%"}
    ]},
    {"compound": "O=c1c(O)c(-c2cc(O)c(O)c(O)c2)oc2cc(O)cc(O)c12", "note": "[M1, myricetin]", "values": [
      {"measurement": "CD4+, CD25+, CD127− (%)", "setting": "[1]; Day 0, before culture", "result": 2.1, "unit": "%"},
      {"measurement": "CD4+, CD25+, CD127− (%)", "setting": "[1]; Day 7 of culture, control 18.0", "result": 22.4, "unit": "%"},
      {"measurement": "Total number of cells", "setting": "[1]; Day 7 of culture", "result": "26.8 ×10^7 cells"}
    ]},
    {"compound": "O=c1c(O)c(-c2cc(O)c(O)c(O)c2)oc2cc(O)cc(O)c12", "note": "[M4, myricetin]", "values": [
      {"measurement": "CD4+, CD25+, CD127− (%)", "setting": "[1]; Day 0, before culture", "result": 2.1, "unit": "%"},
      {"measurement": "CD4+, CD25+, CD127− (%)", "setting": "[1]; Day 7 of culture, control 18.0", "result": 23.3, "unit": "%"},
      {"measurement": "Total number of cells", "setting": "[1]; Day 7 of culture", "result": "25.6 ×10^7 cells"}
    ]},
    {"compound": "superoxide dismutase [S2]", "values": [
      {"measurement": "CD4+, CD25+, CD127− (%)", "setting": "[1]; Day 0, before culture", "result": 1.2, "unit": "%"},
      {"measurement": "CD4+, CD25+, CD127− (%)", "setting": "[1]; Day 7 of culture, control 18.0", "result": 37.1, "unit": "%"},
      {"measurement": "Total number of cells", "setting": "[1]; Day 7 of culture", "result": "25.2 ×10^7 cells"}
    ]}
  ]
}
